Our source for the AC50 and EC50 values is patent US12344610B2, “APOL1 inhibitors and methods of use” (Maze Therapeutics, Inc., priority 2022, dated 2025).

One experiment has as its target T1, APOL1 G2 (Homo sapiens, UniProt O14791, DEL388-389).
T1 construct: expressed in transfected cells; host or cells: HEK293 T-REx clonal line stably expressing GCaMP6f (HEK T-REx/GCaMP6f/APOL1 G2 K6.3), doxycycline induced
T1 sequence (O14791 with tags, fused parts or gaps DEL388-389): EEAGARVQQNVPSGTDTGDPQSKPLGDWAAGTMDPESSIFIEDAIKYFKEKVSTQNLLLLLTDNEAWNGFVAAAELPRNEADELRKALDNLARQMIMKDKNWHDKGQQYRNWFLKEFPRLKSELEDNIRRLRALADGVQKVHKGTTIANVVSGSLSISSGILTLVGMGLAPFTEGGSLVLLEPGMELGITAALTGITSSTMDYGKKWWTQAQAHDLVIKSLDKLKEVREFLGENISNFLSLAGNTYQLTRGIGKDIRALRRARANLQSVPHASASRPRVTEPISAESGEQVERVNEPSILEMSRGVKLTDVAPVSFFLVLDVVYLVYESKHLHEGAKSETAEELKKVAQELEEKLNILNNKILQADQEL
Put plainly: APOL1-mediated calcium transport (calcium influx) assay, HEK T-REx/GCaMP6f/APOL1 G2 K6.3 cells, FLIPR TETRA. In kind it is cell-based. The note with it: prevention of calcium influx; geometric mean of at least 2 assay runs; † = average of a technical replicate from a single assay run. The procedure, abridged: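 A HEK293 T-REx clone stably expressing GCaMP6f had APOL1 G2 induced with doxycycline (20 ng/mL solution added) for 6 h. Cells were then washed into Ca2+-free Tyrode's buffer (pH 7.4) and preincubated with compounds (duplicate 8-point) for 10 min at room temperature. Ca2+ injection to 5 mM final produced FLIPR GCaMP fluorescence, giving AC50 for influx inhibition (geometric mean, ≥2 runs).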

The subject of experiment [1] is HEK293 cells overexpressing APOL1 G2. Put plainly: APOL1 G2 HEK293 cell rescue assay (reversal of cell death caused by overexpression of APOL1). The note with it: Homo sapiens, HEK293, HEK293 overexpressing APOL1 G2; geometric mean of at least 2 assay runs; † = single assay run. In kind it is cell-based. Put shortly: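 Each compound tested in duplicate wells on one plate per run, with values usually the geometric mean across at least two runs on different days, occasionally from one run only. Read-out: concentration giving half-maximal rescue of APOL1 G2 overexpression-induced death of HEK293 cells.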

On to `CS(=O)(=O)c1ccc(OCCN2CCC3(CC2)C(=O)Nc2ccc(C#N)cc23)cc1` [Compound 71, 1′-[2-(4-methanesulfonylphenoxy)ethyl]-2-oxo-1,2-dihydrospiro[indole-3,4′-piperidine]-5-carbonitrile], for which the AC50 on APOL1 G2 was 626 nM. In addition, the EC50 in experiment [1] is 345 nM.
Turning to `CS(=O)(=O)c1ccc(OCCN2CCC3(CC2)C(=O)Nc2ccc(Br)cc23)cc1` [Compound 72, 5-bromo-1′-[2-(4-methanesulfonylphenoxy)ethyl]-1,2-dihydrospiro[indole-3,4′-piperidin]-2-one], the AC50 at APOL1 G2 was determined as 252 nM. Further, in experiment [1], the EC50 came to 35.9 nM.
Take `CN(c1ccc(OCCN2CCC3(CC2)C(=O)Nc2ccc(C#N)cc23)cc1)S(C)(=O)=O` [Compound 75, N-[4-(2-{5-cyano-2-oxo-1,2-dihydrospiro[indole-3,4′-piperidin]-1′-yl}ethoxy)phenyl]-N-methylmethanesulfonamide]: the AC50 at APOL1 G2 was determined as 689 nM. For the same compound, in experiment [1], the EC50 was found to be 114 nM.
`CN(c1ccc(OCCN2CCC3(CC2)C(=O)Nc2ccc(Cl)cc23)cc1)S(C)(=O)=O` [Compound 76, N-[4-(2-{5-chloro-2-oxo-1,2-dihydrospiro[indole-3,4′-piperidin]-1′-yl}ethoxy)phenyl]-N-methylmethanesulfonamide]: the AC50 at APOL1 G2 was determined as 678 nM. The EC50 in experiment [1] came to 47.7 nM.
For `CS(C)(=O)=Nc1ccc(OCCN2CCC3(CC2)C(=O)Nc2ccc(C#N)cc23)cc1` [Compound 77, 1′-[2-(4-{[dimethyl(oxo)-λ^6-sulfanylidene]amino}phenoxy)ethyl]-2-oxo-1,2-dihydrospiro[indole-3,4′-piperidine]-5-carbonitrile] the same measures were 1600 nM and 2250 nM.
`CN1C(=O)CCc2cc(OCCN3CCC4(CC3)C(=O)Nc3ccc(Cl)cc34)cnc21` [Compound 78, 5-chloro-1′-{2-[(8-methyl-7-oxo-5,6,7,8-tetrahydro-1,8-naphthyridin-3-yl)oxy]ethyl}-1,2-dihydrospiro[indole-3,4′-piperidin]-2-one]: on APOL1 G2, the AC50 turned out to be 522 nM. The EC50 in experiment [1] turned out to be 41 nM.
As for `CN1C(=O)CCc2cc(OCCN3CCC4(CC3)C(=O)Nc3ccc(C#N)cc34)cnc21` [Compound 79, 1′-{2-[(8-methyl-7-oxo-5,6,7,8-tetrahydro-1,8-naphthyridin-3-yl)oxy]ethyl}-2-oxo-1,2-dihydrospiro[indole-3,4′-piperidine]-5-carbonitrile], the AC50 on APOL1 G2 was found to be 687 nM. For the same compound, the EC50 in experiment [1] worked out at 207 nM.
For the compound `CC(C)[C@]1(O)C[C@@H](N2C(=O)CCc3cc(OCCN4CCC5(CC4)C(=O)Nc4ccc(Cl)cc45)cnc32)C1` [Compound 317, 5-chloro-1′-[2-({7-oxo-8-[(cis)-3-hydroxy-3-(propan-2-yl)cyclobutyl]-5,6,7,8-tetrahydro-1,8-naphthyridin-3-yl}oxy)ethyl]-1,2-dihydrospiro[indole-3,4′-piperidin]-2-one], on APOL1 G2, the half-maximal activity concentration (AC50) came out at 792 nM. Further, the half-maximal effective concentration (EC50) in experiment [1] is 23.9 nM.
Take `C[C@]1(O)C[C@@H](n2c(=O)ccc3cc(OCCN4CCC5(CC4)C(=O)Nc4ccc(Cl)cc45)cnc32)C1` [Compound 323, 5-chloro-1′-[2-({7-oxo-8-[(cis)-3-hydroxy-3-methylcyclobutyl]-7,8-dihydro-1,8-naphthyridin-3-yl}oxy)ethyl]-1,2-dihydrospiro[indole-3,4′-piperidin]-2-one]: the AC50 at APOL1 G2 stood at 400 nM. For the same compound, the EC50 in experiment [1] came to 17.3 nM.
`C[C@]1(O)C[C@@H](n2c(=O)ccc3cc(OCCN4CCC5(CC4)C(=O)Nc4ccc(C(F)F)cc45)cnc32)C1` [Compound 324, 5-(difluoromethyl)-1′-[2-({7-oxo-8-[(cis)-3-hydroxy-3-methylcyclobutyl]-7,8-dihydro-1,8-naphthyridin-3-yl}oxy)ethyl]-1,2-dihydrospiro[indole-3,4′-piperidin]-2-one]: the AC50 on APOL1 G2 was found to be 942 nM. In addition, the EC50 in experiment [1] came to 25.6 nM.
For the compound `O=C1CCc2cc(OCCN3CCC4(CC3)C(=O)Nc3ccc(Cl)cc34)cnc2N1C1CC(CO)C1` (centres unmarked) [Compound 326, 5-chloro-1′-[2-({8-[3-(hydroxymethyl)cyclobutyl]-7-oxo-5,6,7,8-tetrahydro-1,8-naphthyridin-3-yl}oxy)ethyl]-1,2-dihydrospiro[indole-3,4′-piperidin]-2-one], at APOL1 G2, the AC50 worked out at 680 nM. Further, the EC50 in experiment [1] was 31.2 nM.
For `CC1(O)CC(CN2C(=O)CCc3cc(OCCN4CCC5(CC4)C(=O)Nc4ccc(Cl)cc45)cnc32)C1` (centres unmarked) [Compound 327, 5-chloro-1′-[2-({8-[(3-hydroxy-3-methylcyclobutyl)methyl]-7-oxo-5,6,7,8-tetrahydro-1,8-naphthyridin-3-yl}oxy)ethyl]-1,2-dihydrospiro[indole-3,4′-piperidin]-2-one] the same measures were 452 nM and 28.9 nM.
Take `C[C@]1(O)C[C@@H](n2c(=O)ccc3cc(OCCN4CCC5(CC4)C(=O)Nc4ccc(OC(F)F)cc45)cnc32)C1` [Compound 328, 5-(difluoromethoxy)-1′-[2-({7-oxo-8-[(cis)-3-hydroxy-3-methylcyclobutyl]-7,8-dihydro-1,8-naphthyridin-3-yl}oxy)ethyl]-1,2-dihydrospiro[indole-3,4′-piperidin]-2-one]: the AC50 at APOL1 G2 amounted to 748 nM. In experiment [1], the EC50 was 34.1 nM.
`O=C1Nc2ccc(Cl)cc2C12CCN(CCOc1cnc(C3(CO)CC3)nc1)CC2` [Compound 333, 5-chloro-1′-[2-({2-[1-(hydroxymethyl)cyclopropyl]pyrimidin-5-yl}oxy)ethyl]-1,2-dihydrospiro[indole-3,4′-piperidin]-2-one]: the concentration at half-maximal activity (AC50) at APOL1 G2 came to 486 nM. Besides, in experiment [1], the EC50 worked out at 43 nM.
Turning to `CC(C)(CO)c1ncc(OCCN2CCC3(CC2)C(=O)Nc2ccc(Cl)cc23)cn1` [Compound 334, 5-chloro-1′-(2-{[2-(1-hydroxy-2-methylpropan-2-yl)pyrimidin-5-yl]oxy}ethyl)-1,2-dihydrospiro[indole-3,4′-piperidin]-2-one], at APOL1 G2, the AC50 is 2000 nM. Also, the EC50 in experiment [1] worked out at 110 nM.
For the compound `CP(C)(=O)C1(c2ccc(OCCN3CCC4(CC3)C(=O)Nc3ccc(Cl)cc34)cc2)CC1` [Compound 343, 5-chloro-1′-(2-{4-[1-(dimethylphosphoryl)cyclopropyl]phenoxy}ethyl)-1,2-dihydrospiro[indole-3,4′-piperidin]-2-one], the AC50 on APOL1 G2 stood at 437 nM. Also, the half-maximal effective concentration (EC50) in experiment [1] came to 162 nM.
For `C[C@]1(O)C[C@@H](N2C(=O)Cc3cc(OCCN4CCC5(CC4)C(=O)Nc4ccc(Cl)cc45)cnc32)C1` [Compound 345, 5-chloro-1′-[2-({2-oxo-1-[(cis)-3-hydroxy-3-methylcyclobutyl]-1H,2H,3H-pyrrolo[2,3-b]pyridin-5-yl}oxy)ethyl]-1,2-dihydrospiro[indole-3,4′-piperidin]-2-one], the AC50 at APOL1 G2 is 469 nM. Moreover, the 50% effective concentration (EC50) in experiment [1] came to 36.4 nM.
Consider `C[C@]1(O)C[C@@H](N2C(=O)Cc3cc(OCCN4CCC5(CC4)C(=O)Nc4ccc(C(F)F)cc45)cnc32)C1` [Compound 346, 5-(difluoromethyl)-1′-[2-({2-oxo-1-[(cis)-3-hydroxy-3-methylcyclobutyl]-1H,2H,3H-pyrrolo[2,3-b]pyridin-5-yl]oxy)ethyl]-1,2-dihydrospiro[indole-3,4′-piperidin]-2-one], for which, at APOL1 G2, the AC50 is 557 nM. In addition, the EC50 in experiment [1] came out at 34.3 nM.
On to `C[C@]1(O)C[C@@H](n2ccc3cc(OCCN4CCC5(CC4)C(=O)Nc4ccc(Cl)cc45)cnc32)C1` [Compound 349, 5-chloro-1′-[2-({1-[(cis)-3-hydroxy-3-methylcyclobutyl]-1H-pyrrolo[2,3-b]pyridin-5-yl}oxy)ethyl]-1,2-dihydrospiro[indole-3,4′-piperidin]-2-one], for which the AC50 at APOL1 G2 is 199 nM. Further, in experiment [1], the half-maximal effective concentration (EC50) was determined as 25.4 nM.
Regarding `C[C@]1(O)C[C@@H](n2ccc3cc(OCCN4CCC5(CC4)C(=O)Nc4ccc(C(F)F)cc45)cnc32)C1` [Compound 350, 5-(difluoromethyl)-1′-[2-({1-[(cis)-3-hydroxy-3-methylcyclobutyl]-1H-pyrrolo[2,3-b]pyridin-5-yl}oxy)ethyl]-1,2-dihydrospiro[indole-3,4′-piperidin]-2-one], the concentration at half-maximal activity (AC50) on APOL1 G2 came to 113 nM. Also, the EC50 in experiment [1] amounted to 18.8 nM.
Turning to `C[C@]1(O)C[C@@H](n2cnc3cc(OCCN4CCC5(CC4)C(=O)Nc4ccc(Cl)cc45)cc(C(F)(F)F)c32)C1` [Compound 352, 5-chloro-1′-[2-({1-[(cis)-3-hydroxy-3-methylcyclobutyl]-7-(trifluoromethyl)-1H-1,3-benzodiazol-5-yl}oxy)ethyl]-1,2-dihydrospiro[indole-3,4′-piperidin]-2-one], the AC50 on APOL1 G2 was determined as 597 nM. Further, the EC50 in experiment [1] turned out to be 8.6 nM.
Take `C[C@]1(O)C[C@@H](N2C(=O)NCc3cc(OCCN4CCC5(CC4)C(=O)Nc4ccc(Cl)cc45)cnc32)C1` [Compound 356, 5-chloro-1′-[2-({2-oxo-1-[(cis)-3-hydroxy-3-methylcyclobutyl]-1H,2H,3H,4H-pyrido[2,3-d]pyrimidin-6-yl}oxy)ethyl]-1,2-dihydrospiro[indole-3,4′-piperidin]-2-one]: on APOL1 G2, the concentration at half-maximal activity (AC50) stood at 2490 nM. For the same compound, in experiment [1], the EC50 was 50.6 nM.

The AC50 is the concentration giving half of the maximal activity seen. By EC50 is commonly meant the midpoint of the concentration-response curve.
